Where two headings read alike, the source gives them in different places.

This experiment relates to DLD-1 BRCA2−/− cells. Description: Homologous recombination synthetic lethal inhibition of proliferation, DLD-1 BRCA2-/- (Cell Titre Glo 3D). In kind it is cell-based. Particulars: for IC50: Homo sapiens. In short, it runs like this:
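DLD-1 BRCA2−/− (3,000 cells/mL) and parental DLD-1 (1,500 cells/mL) cells in phenol red-free RPMI 1640 with 10% FBS were exposed to a 10-point, three-fold compound series from 10 μM to 0.51 nM at 37 °C, 5% CO2. Medium and compound were replenished on day 6. CellTiter-Glo 3D luminescence was read on day 7 (DLD-1) or day 12 (BRCA2−/−), and IC50 was taken as 50% reduction of maximum signal.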

The mark [1] stands for this setting: DLD-1, DLD-1 BRCA2 −/− cells, mean, read-out: POLQ PD Prolif Lumin BRCA2 −/− mean pIC50 (converted).
Setting [2] is: DLD-1, first proliferation column (c5), DLD-1 BRCA2-/-, read-out: POLQ PD Prolif Lumin (converted).
Where [3] appears, read: DLD-1, proliferation, luminescence, taken as DLD-1 BRCA2-/-, read-out: POLQ PD Prolif Lumin (converted).
Setting [4] is: DLD-1, first proliferation column, DLD-1 BRCA2-/-, read-out: POLQ PD Prolif Lumin (converted).
Setting [5] is: DLD-1, DLD-1 BRCA2 −/−, mean, read-out: POLQ PD Prolif Lumin BRCA2 −/− mean pIC50 (converted).

On to `CC1(Oc2ncnc3c2nc(-c2ccc(CC(N)=O)cc2Cl)n3Cc2ccccc2C#N)CC1` [Example T82, 2-(3-chloro-4-(9-(2-cyanobenzyl)-6-(1-methylcyclopropoxy)-9H-purin-8-yl)phenyl)acetamide], for which the IC50 under setting [1] is 316 nM.

For `Cc1ccnc(Cn2c(-c3ccc(C4CNC(=O)C4)cc3Cl)nc3c(OC4(C)CC4)ncnc32)c1` (single isomer, unassigned) [Example T174, 4-(3-chloro-4-(6-(1-methylcyclopropoxy)-9-((4-methylpyridin-2-yl)methyl)-9H-purin-8-yl)phenyl)pyrrolidin-2-one], the IC50 under setting [2] is 501 nM. For `CC1(Oc2ncnc3c2nc(-c2ccc(CC(N)=O)cc2Cl)n3Cc2cncc(C#N)c2)CC1` [Example T39, 2-(3-chloro-4-(9-((5-cyanopyridin-3-yl)methyl)-6-(1-methylcyclopropoxy)-9H-purin-8-yl)phenyl)acetamide], the IC50 under setting [1] is 6310 nM.

As for `CC(=O)N1CC[C@@H](Oc2ccc(-c3nc4c(OC5(C)CC5)ncnc4n3Cc3cc(C)ccn3)c(Cl)c2)C1` [Example T472, (R)-1-(3-(3-chloro-4-(6-(1-methylcyclopropoxy)-9-((4-methylpyridin-2-yl)methyl)-9H-purin-8-yl)phenoxy)pyrrolidin-1-yl)ethan-1-one], the IC50 under setting [3] was 200 nM. Regarding `CC(CCOc1ccc(-c2nc3c(OC4(C)CC4)ncnc3n2Cc2ccccc2C(F)F)c(Cl)c1)C(=O)O` (single isomer, unassigned) [Example T414, 4-(3-chloro-4-(9-(2-(difluoromethyl)benzyl)-6-(1-methylcyclopropoxy)-9H-purin-8-yl)phenoxy)-2-methylbutanoic acid], the IC50 under setting [3] is 1580 nM. For `Cc1ccnc(Cn2c(-c3ccc(OCC(F)CO)cc3Cl)nc3c(OC4(C)CC4)ncnc32)c1` (single isomer, unassigned) [Example T109, 3-(3-chloro-4-(6-(1-methylcyclopropoxy)-9-((4-methylpyridin-2-yl)methyl)-9H-purin-8-yl)phenoxy)-2-fluoropropan-1-ol], the IC50 under setting [2] is 158 nM. Same read-out and setting: to `Cc1ccnc(Cn2c(-c3ccc(CC(=O)N4CC5(CCN5)C4)cc3Cl)nc3c(OC4(C)CC4)ncnc32)c1` [Example T556, 2-(3-chloro-4-(6-(1-methylcyclopropoxy)-9-((4-methylpyridin-2-yl)methyl)-9H-purin-8-yl)phenyl)-1-(1,6-diazaspiro[3.3]heptan-6-yl)ethan-1-one] belongs 6310 nM; to `Cc1ccnc(Cn2c(-c3ccc(C4CCNC4=O)cc3Cl)nc3c(OC4(C)CC4)ncnc32)c1` (racemic) [Example T176, 3-(3-chloro-4-(6-(1-methylcyclopropoxy)-9-((4-methylpyridin-2-yl)methyl)-9H-purin-8-yl)phenyl)pyrrolidin-2-one], 794 nM; to `C[C@@H]1CNCCN1CCOc1ccc(-c2nc3c(OC4(C)CC4)ncnc3n2Cc2cc(Cl)ccn2)c(Cl)c1` [Example T522, (R)-8-(2-chloro-4-(2-(2-methylpiperazin-1-yl)ethoxy)phenyl)-9-((4-chloropyridin-2-yl)methyl)-6-(1-methylcyclopropoxy)-9H-purine], 251 nM.

As to `CC1(Oc2ncnc3c2nc(-c2ccc(O[C@H]4CC[C@H](C(=O)O)CC4)cc2Cl)n3Cc2cc(Cl)ccc2F)CC1` [Example U49, (1r,4r)-4-(3-chloro-4-(9-(5-chloro-2-fluorobenzyl)-6-(1-methylcyclopropoxy)-9H-purin-8-yl)phenoxy)cyclohexane-1-carboxylic acid], the “POLQ PD Prolif Lumin BRCA2 −/− mean pIC50” value (DLD-1 BRCA2 −/−, mean) came out at 7.3. Consider `CCC(CCOc1ccc(-c2nc3c(OC4(C)CC4)ncnc3n2Cc2cccc(Cl)c2)c(Cl)c1)C(=O)O` (racemic) [Example T441, 4-(3-chloro-4-(9-(3-chlorobenzyl)-6-(1-methylcyclopropoxy)-9H-purin-8-yl)phenoxy)-2-ethylbutanoic acid], for which the IC50 under setting [3] is 158 nM.

`CNC(=O)COc1ccc(-c2nc3c(OC4(C)CC4)ncnc3n2Cc2ncc(C)s2)c(Cl)c1` [Example T28, 2-(3-chloro-4-(6-(1-methylcyclopropoxy)-9-((5-methylthiazol-2-yl)methyl)-9H-purin-8-yl)phenoxy)-N-methylacetamide]: under setting [1], the IC50 was 631 nM. For the compound `CC1(Oc2ncnc3c2nc(-c2cccc(OCCCc4nn[nH]n4)c2Cl)n3Cc2cccc(Cl)c2)CC1` [Example T163, 8-(3-(3-(2H-tetrazol-5-yl)propoxy)-2-chlorophenyl)-9-(3-chlorobenzyl)-6-(1-methylcyclopropoxy)-9H-purine], the IC50 under setting [2] was 251 nM. As to `CC(C)(C)Oc1cccc2c1nc(-c1ccc(OCCN3CCNCC3)cc1Cl)n2Cc1cccc(Cl)c1` [Example T608, 4-(tert-butoxy)-2-(2-chloro-4-(2-(piperazin-1-yl)ethoxy)phenyl)-1-(3-chlorobenzyl)-1H-benzo[d]imidazole], the IC50 under setting [4] was 501 nM.

As to `Cc1ccnc(Cn2c(-c3ccc(CCNS(C)(=O)=O)cc3Cl)nc3c(OC4(C)CC4)ncnc32)c1` [Example T143, N-(3-chloro-4-(6-(1-methylcyclopropoxy)-9-((4-methylpyridin-2-yl)methyl)-9H-purin-8-yl)phenethyl)methanesulfonamide], the IC50 under setting [2] was 398 nM.

On to `CC1(Oc2ncnc3c2nc(-c2ccc(OCCC(=O)O)cc2Cl)n3Cc2ccc(Cl)c(Cl)c2)CC1` [Example T84, 3-(3-chloro-4-(9-(3,4-dichlorobenzyl)-6-(1-methylcyclopropoxy)-9H-purin-8-yl)phenoxy)propanoic acid], for which, under setting [1], the IC50 is 2000 nM. `CC(C)(CCOc1ccc(-c2nc3c(OC4(C)CC4)ncnc3n2Cc2cccc(Cl)c2)c(Cl)c1)CC(=O)O` [Example T562, 5-(3-chloro-4-(9-(3-chlorobenzyl)-6-(1-methylcyclopropoxy)-9H-purin-8-yl)phenoxy)-3,3-dimethylpentanoic acid]: the IC50 under setting [2] is 126 nM. Take `CC(CCOc1ccc(-c2nc3c(OC4(C)CC4)ncnc3n2Cc2cccc(Cl)c2F)c(Cl)c1)C(=O)O` (single isomer, unassigned) [Example T270, 4-(3-chloro-4-(9-(3-chloro-2-fluorobenzyl)-6-(1-methylcyclopropoxy)-9H-purin-8-yl)phenoxy)-2-methylbutanoic acid]: the IC50 (DLD-1, DLD-1 BRCA2-/- proliferation, column head only partly shown, read-out: POLQ PD Prolif Lumin (converted)) was 501 nM. As for `Cc1ccnc(Cn2c(-c3ccc(OCCNS(C)(=O)=O)cc3Cl)nc3c(OC4(C)CC4)ncnc32)c1` [Example T144, N-(2-(3-chloro-4-(6-(1-methylcyclopropoxy)-9-((4-methylpyridin-2-yl)methyl)-9H-purin-8-yl)phenoxy)ethyl)methanesulfonamide], under setting [2], the IC50 was 158 nM.

In the case of `Cc1ccnc(Cn2c(-c3ccc(OCC(=O)N4CC(C)(O)C4)cc3Cl)nc3c(OC4(C)CC4)ncnc32)c1` [Example T477, 2-(3-chloro-4-(6-(1-methylcyclopropoxy)-9-((4-methylpyridin-2-yl)methyl)-9H-purin-8-yl)phenoxy)-1-(3-hydroxy-3-methylazetidin-1-yl)ethan-1-one], under setting [3], the IC50 is 1260 nM. Regarding `Cc1cc(Cn2c(-c3ccc(CC(N)=O)cc3Cl)nc3c(OC4(C)CC4)ncnc32)n(C)n1` [Example T32, 2-(3-chloro-4-(9-((1,3-dimethyl-1H-pyrazol-5-yl)methyl)-6-(1-methylcyclopropoxy)-9H-purin-8-yl)phenyl)acetamide], the IC50 under setting [1] is 2000 nM. As for `Cc1ccnc(Cn2c(-c3ccc(C(=O)N4CCC[C@H]4CO)cc3Cl)nc3c(OC4(C)CC4)ncnc32)c1` [Example T466, (S)-(3-chloro-4-(6-(1-methylcyclopropoxy)-9-((4-methylpyridin-2-yl)methyl)-9H-purin-8-yl)phenyl)(2-(hydroxymethyl)pyrrolidin-1-yl)methanone], the IC50 under setting [3] was 1000 nM. Take `CC(CCOc1ccc(-c2nc3c(OC4(C)CC4)ncnc3n2Cc2cc(C(F)(F)F)cc(Cl)c2F)c(Cl)c1)C(=O)O` (racemic) [Example U35, 4-(3-chloro-4-(9-(3-chloro-2-fluoro-5-(trifluoromethyl)benzyl)-6-(1-methylcyclopropoxy)-9H-purin-8-yl)phenoxy)-2-methylbutanoic acid]: the IC50 under setting [5] was 158 nM. Consider `Cc1ccnc(Cn2c(-c3ccc(N4CCN5CCC[C@H]5C4)cc3Cl)nc3c(OC4(C)CC4)ncnc32)c1` [Example T585, (S)-8-(2-chloro-4-(hexahydropyrrolo[1,2-a]pyrazin-2(1H)-yl)phenyl)-6-(1-methylcyclopropoxy)-9-((4-methylpyridin-2-yl)methyl)-9H-purine], for which the IC50 under setting [4] was 200 nM. Consider `Cc1ccnc(Cn2c(-c3ccc(OCC(N)=O)cc3Cl)nc3c(OC4(C)CC4)ncnc32)c1` [Example T61, 2-(3-chloro-4-(6-(1-methylcyclopropoxy)-9-((4-methylpyridin-2-yl)methyl)-9H-purin-8-yl)phenoxy)acetamide], for which, under setting [1], the IC50 is 251 nM. Regarding `CC1(Oc2ncnc3c2nc(-c2ccc(OCCC(C)(C)C(=O)O)cc2Cl)n3Cc2cc(Cl)ccc2F)CC1` [Example U46, 4-(3-chloro-4-(9-(5-chloro-2-fluorobenzyl)-6-(1-methylcyclopropoxy)-9H-purin-8-yl)phenoxy)-2,2-dimethylbutanoic acid], the IC50 under setting [5] is 31.6 nM. For the compound `Cc1ccnc(Cn2c(-c3ccc(O[C@H]4CCOC4)cc3Cl)nc3c(OC4(C)CC4)ncnc32)c1` [Example T196, (S)-8-(2-chloro-4-((tetrahydrofuran-3-yl)oxy)phenyl)-6-(1-methylcyclopropoxy)-9-((4-methylpyridin-2-yl)methyl)-9H-purine], under setting [2], the IC50 is 100 nM.
